In data set [1] the test system is Trichomonas vaginalis. In words: Trichomonicidal activity against Trichomonas vaginalis GT3 compound treated for 48 hrs followed by incubation for 48 hrs in compound-free medium by cell counting. In kind it is functional, organism-based. The settings on record: GT3, 48 h.
Data set [2] deals with Giardia intestinalis. Briefly: Giardicidal activity against Giardia intestinalis IMSS:0696:1 compound treated for 48 hrs followed by incubation for 48 hrs in compound-free medium by cell counting. The settings on record: Giardia duodenalis, IMSS:0696:1, 48 h. In kind it is functional, organism-based.
Data set [3] can be described thus: Cytotoxicity against African green monkey Vero cells after 48 hrs by MTT assay. The data set is classed as cell-based. The settings on record: chlorocebus sabaeus. A general note: Formazan colour is commonly taken as a measure of viable cells.
In data set [4] the test system is Giardia duodenalis. In words: Inhibition of Giardia intestinalis fructose 1,6-bisphosphate aldolase at 400 nM after 2 hrs by spectrophotometry.
Data set [5] concerns Giardia intestinalis. In words: Ratio of metronidazole IC50 to compound IC50 for Giardia intestinalis IMSS:0696:1 compound treated for 48 hrs followed by incubation for 48 hrs in compound-free medium by cell counting. In kind it is functional, Giardia duodenalis.
In data set [6] the test system is Giardia intestinalis. Briefly: Ratio of nitazoxanide IC50 to compound IC50 for Giardia intestinalis IMSS:0696:1 compound treated for 48 hrs followed by incubation for 48 hrs in compound-free medium by cell counting. The data set is classed as functional, Giardia duodenalis.
For data set [7], the system named is Giardia duodenalis. In words: Ratio of nitazoxanide IC50 to compound IC50 for Giardia intestinalis fructose 1,6-bisphosphate aldolase at 400 nM after 2 hrs by spectrophotometry.
Data set [8] can be described thus: Selectivity index, ratio of CC50 for african green monkey Vero cells to IC50 for Giardia intestinalis IMSS:0696:1. The data set is classed as functional.
Data set [9] relates to Trichomonas vaginalis. In words: Ratio of nitazoxanide IC50 to compound IC50 for Trichomonas vaginalis GT3 compound treated for 48 hrs followed by incubation for 48 hrs in compound-free medium by cell counting. In kind it is functional.
The test system of data set [10] is Trichomonas vaginalis. In words: Ratio of metronidazole IC50 to compound IC50 for Trichomonas vaginalis GT3 compound treated for 48 hrs followed by incubation for 48 hrs in compound-free medium by cell counting. In kind it is functional.

The record followed here is ChEMBL document CHEMBL3400142, “Synthesis of nitro(benzo)thiazole acetamides and in vitro antiprotozoal effect against amitochondriate parasites Giardia intestinalis and Trichomonas vaginalis” (Bioorg Med Chem, 2015).

Usually CC50 stands for the concentration at which the toxic effect on the cells reaches its halfway point. For orientation: inhibition means how much of the control response was suppressed. Consider `O=C(CN1CCCC1)Nc1nc2ccc([N+](=O)[O-])cc2s1`, for which the IC50 in the data set with Trichomonas vaginalis [1] was 0.221 µM; in the data set on Giardia intestinalis [2] (read-out: IC50), 0.298 µM. In data set [3], this molecule registered a CC50 at 48 h of more than 1000 µM. Moreover, the inhibition in the data set on Giardia duodenalis [4] is 10%.
With `O=C(CN1CCOCC1)Nc1ncc([N+](=O)[O-])s1`, the figures for the IC50 with Trichomonas vaginalis [1], in the data set with Giardia intestinalis [2] (read-out: IC50) and in the data set with Giardia intestinalis [2] (read-out: pIC50 (converted)) were 0.305 µM, 0.151 µM and 0.151 µM, respectively. This molecule also yielded a CC50 at 48 h in data set [3] of more than 1000 µM. This molecule yielded an inhibition in the data set with Giardia duodenalis [4] of 54%. The figures for the “Ratio IC50” value in the data set with Giardia intestinalis [5], with Giardia intestinalis [6] and in the data set on Giardia duodenalis [7] were 35, 8 and 2, respectively. The “Ratio CC50/IC50” value in data set [8] was 6622.
In the case of `CCN(CC)CC(=O)Nc1ncc([N+](=O)[O-])s1`, the IC50 in the data set with Trichomonas vaginalis [1] is 2.25 µM; in the data set on Giardia intestinalis [2] (read-out: IC50), 0.122 µM; with Giardia intestinalis [2] (read-out: pIC50 (converted)), 0.123 µM. For the same molecule, in data set [3], the cytotoxic concentration (CC50) at 48 h is more than 1000 µM. This molecule also came in with an inhibition in the data set with Giardia duodenalis [4] of 66%. Also, the “Ratio IC50” value with Giardia intestinalis [5] was 44; in the data set on Giardia intestinalis [6], 10; with Giardia duodenalis [7], 2. Besides, in [8], the “Ratio CC50/IC50” value stood at 8196.
In the case of `O=C(CN1CCOCC1)Nc1nc2ccc([N+](=O)[O-])cc2s1`, the IC50 came out at 0.331 µM in the data set on Trichomonas vaginalis [1] and 3.35 µM in the data set on Giardia intestinalis [2] (read-out: IC50). Moreover, the CC50 at 48 h in data set [3] was more than 1000 µM. The molecule further yielded an inhibition in the data set on Giardia duodenalis [4] of 35%.
In the case of `Nc1ncc([N+](=O)[O-])s1`, the inhibition in the data set on Giardia duodenalis [4] is -0%.
Consider `CC(=O)Nc1ncc([N+](=O)[O-])s1` [NITHIAMIDE], for which the CC50 at 48 h in [3] was more than 1000 µM. The same molecule gave an inhibition in the data set with Giardia duodenalis [4] of -0%.
For `CCN(CC)CC(=O)Nc1nc2ccc([N+](=O)[O-])cc2s1`, the IC50 came out at 3.21 µM in the data set with Trichomonas vaginalis [1] and 2.03 µM in the data set on Giardia intestinalis [2] (read-out: IC50). Also, in data set [3], the CC50 at 48 h is more than 1000 µM. The inhibition in the data set with Giardia duodenalis [4] was -0%.
For `O=C(CN1CCCCC1)Nc1nc2ccc([N+](=O)[O-])cc2s1`, in that order: 3.43 µM, 2.31 µM, more than 1000 µM and -0%.
As to `O=C(CN1CCCC1)Nc1ncc([N+](=O)[O-])s1`, the IC50 in the data set on Trichomonas vaginalis [1] stood at 6.1 µM; in the data set with Giardia intestinalis [2] (read-out: IC50) it was 0.178 µM. The same molecule displayed a CC50 at 48 h in [3] of more than 1000 µM. In the data set on Giardia duodenalis [4], this molecule gave an inhibition of 21%. Further, the figures for the “Ratio IC50” value in the data set on Giardia intestinalis [5] and with Giardia intestinalis [6] were 24 and 5, respectively.
As to `Cc1ncc([N+](=O)[O-])n1CCO` [METRONIDAZOLE], the CC50 at 48 h in data set [3] came to 367 µM.
For the molecule `Nc1nc2ccc([N+](=O)[O-])cc2s1`, the figures for the IC50 in the data set on Trichomonas vaginalis [1] and in the data set with Giardia intestinalis [2] (read-out: IC50) were 0.625 µM and 24.4 µM, respectively. The molecule also yielded a CC50 at 48 h in data set [3] of 607 µM. For the same molecule, in the data set with Giardia duodenalis [4], the inhibition was -0%. Also, the “Ratio IC50” value in the data set with Trichomonas vaginalis [9] is 3; in the data set on Trichomonas vaginalis [10] it was 13.
As for `O=C(CN1CCCCC1)Nc1ncc([N+](=O)[O-])s1`, the IC50 in the data set on Trichomonas vaginalis [1] worked out at 2.04 µM; with Giardia intestinalis [2] (read-out: IC50), 0.219 µM. The CC50 at 48 h in data set [3] is more than 1000 µM. The molecule also registered an inhibition in the data set on Giardia duodenalis [4] of 5%.
On to `CC(=O)Oc1ccccc1C(=O)Nc1ncc([N+](=O)[O-])s1`, for which the inhibition with Giardia duodenalis [4] stood at 31%.
Consider `O=C(Nc1ncc([N+](=O)[O-])s1)c1ccccc1O` [TIZOXANIDE], for which the midpoint of cytotoxicity in data set [3], the CC50 at 48 h, lay at 388 µM. Also, the inhibition in the data set on Giardia duodenalis [4] worked out at 25%.
